Results reported in ChEMBL document CHEMBL1201862, “PubChem BioAssay data set” (2004).
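Tested at 5 concentrations; 48 h exposure; 96-well plates; endpoints linearly interpolated, else capped at highest concentration. GI50 is the concentration that inhibits growth by half.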 Activity calls are given as the source filed them. Cut-off read from the data, not from the text of the source: active = GI50 up to about 1.1 µM and inactive = higher.

What was measured:
Assay in all cases: DTP human tumour cell line panel, 48 h
[1] = test system: UACC-257
[2] = test system: UO-31
[3] = test system: NCI-H460
[4] = test system: SK-MEL-5
[5] = test system: SNB-75
[6] = test system: NCI/ADR-RES
[7] = test system: OVCAR-5
[8] = test system: NCI-H23
[9] = test system: OVCAR-3
[10] = test system: HCC 2998
[11] = test system: HOP-62
[12] = test system: SR
[13] = test system: SF-539
[14] = test system: RPMI-8226
[15] = test system: COLO 205
[16] = test system: TK-10
[17] = test system: HCT-116
[18] = test system: K562
[19] = test system: IGROV-1
[20] = test system: OVCAR-4

Measured: GI50

C=C1C(=O)O[C@H]2C[C@@]3(COC(C)=O)C=COC=C(COC(=O)C(C)C)C3CC12 (some centres undefined)
inactive: [1] > 100 µM | [2] > 100 µM | [3] > 100 µM | [4] > 100 µM | [5] 12.2 µM | [6] > 100 µM | [7] > 100 µM | [8] > 100 µM | [9] > 100 µM | [10] 51.4 µM | [11] > 100 µM | [12] 25.9 µM | [13] > 100 µM | [14] 21.5 µM | [15] 61.1 µM | [16] > 100 µM | [17] 37.5 µM | [18] 31.6 µM | [19] > 100 µM

Cc1nc2sc3cccc(Cl)c3n2c(=O)c1/N=N/c1ccc(Cl)cc1
inactive: [1] 98.6 µM | [3] > 100 µM | [4] 68.2 µM | [5] 85.3 µM | [6] > 100 µM | [20] > 100 µM | [7] > 100 µM | [8] 99.8 µM | [9] 46.7 µM | [11] 75.2 µM | [12] > 100 µM | [13] > 100 µM | [14] > 100 µM | [15] 94.6 µM | [16] > 100 µM | [17] 88.1 µM | [18] 63 µM | [19] 63.8 µM

Nc1ccc(S(=O)(=O)C23CC4CC(CC(C4)C2)C3)cc1
inactive: [1] > 100 µM | [2] > 100 µM | [3] 74.3 µM | [4] 4.49 µM | [6] > 100 µM | [7] > 100 µM | [8] > 100 µM | [9] 77.8 µM | [10] > 100 µM | [11] > 100 µM | [12] 61.7 µM | [13] > 100 µM | [14] 55.3 µM | [15] 74.1 µM | [16] > 100 µM | [17] > 100 µM | [18] 89.5 µM | [19] > 100 µM

COc1ccccc1Nc1nc(NNC(=O)Cc2ccccc2)nc(NNC(=O)c2ccncc2)n1
inactive: [1] > 10 µM | [3] > 10 µM | [4] > 10 µM | [5] > 10 µM | [6] > 10 µM | [20] > 10 µM | [8] > 10 µM | [10] > 10 µM | [11] > 10 µM | [12] > 10 µM | [13] > 10 µM | [14] > 10 µM | [15] > 10 µM | [16] > 10 µM | [18] > 10 µM | [19] > 10 µM

COc1ccc(-c2cc(=O)c3c(O)c(OC)c(OC)c(OC)c3o2)cc1OC [5-DEMETHYLNOBILETIN]
inactive: [1] > 100 µM | [2] > 100 µM | [4] 27.4 µM | [6] 14.5 µM | [20] > 100 µM | [7] > 100 µM | [8] > 100 µM | [9] > 100 µM | [10] > 100 µM | [11] 19.5 µM | [12] > 100 µM | [13] 86.5 µM | [15] > 100 µM | [16] 67.1 µM | [17] > 100 µM | [18] > 100 µM | [19] 53.1 µM

O=C(O)Cc1cccc2c1OC(c1ccccc1)C(Cl)(C(=O)c1ccccc1)C2=O (centres undefined)
inactive: [1] 15.3 µM | [2] 17.4 µM | [3] 19.9 µM | [4] 15.3 µM | [5] 19.1 µM | [6] 22.2 µM | [8] 16.1 µM | [9] 17.7 µM | [10] 13.2 µM | [11] 20.3 µM | [12] 20.4 µM | [13] 31.6 µM | [14] 17.4 µM | [15] > 10 µM | [16] 21.8 µM | [17] 15.1 µM | [18] 5.52 µM | [19] 15.6 µM

CC(=O)N1NC(c2ccccc2)=CC(=O)/C1=C/C(=O)c1ccccc1
inactive: [1] > 100 µM | [2] 98.4 µM | [3] 71.1 µM | [4] 47.8 µM | [6] 50.4 µM | [20] 84.1 µM | [7] > 100 µM | [8] > 100 µM | [9] 28.6 µM | [10] > 100 µM | [11] 88.1 µM | [12] 20.7 µM | [13] 32.1 µM | [14] 31.3 µM | [15] > 100 µM | [16] 48.8 µM | [17] 62.2 µM | [18] 56 µM | [19] 34.3 µM

CC1(C)O[C@H]2OC(CO)C(N=[N+]=[N-])[C@H]2O1 (some centres undefined)
inactive: [1] > 100 µM | [2] > 100 µM | [3] > 100 µM | [4] > 100 µM | [5] > 100 µM | [6] > 100 µM | [20] > 100 µM | [7] > 100 µM | [8] > 100 µM | [9] > 100 µM | [10] > 100 µM | [11] > 100 µM | [12] > 100 µM | [13] > 100 µM | [14] > 100 µM | [15] > 100 µM | [16] > 100 µM | [17] > 100 µM | [19] > 100 µM
